In patent US9169254B2, “Spiroimidazolone derivative” (Chugai Seiyaku Kabushiki Kaisha, priority 2009, dated 2015):

Biological target: T1, human PTH1 receptor (Homo sapiens, UniProt Q03431)
T1 sequence (Q03431 27-593): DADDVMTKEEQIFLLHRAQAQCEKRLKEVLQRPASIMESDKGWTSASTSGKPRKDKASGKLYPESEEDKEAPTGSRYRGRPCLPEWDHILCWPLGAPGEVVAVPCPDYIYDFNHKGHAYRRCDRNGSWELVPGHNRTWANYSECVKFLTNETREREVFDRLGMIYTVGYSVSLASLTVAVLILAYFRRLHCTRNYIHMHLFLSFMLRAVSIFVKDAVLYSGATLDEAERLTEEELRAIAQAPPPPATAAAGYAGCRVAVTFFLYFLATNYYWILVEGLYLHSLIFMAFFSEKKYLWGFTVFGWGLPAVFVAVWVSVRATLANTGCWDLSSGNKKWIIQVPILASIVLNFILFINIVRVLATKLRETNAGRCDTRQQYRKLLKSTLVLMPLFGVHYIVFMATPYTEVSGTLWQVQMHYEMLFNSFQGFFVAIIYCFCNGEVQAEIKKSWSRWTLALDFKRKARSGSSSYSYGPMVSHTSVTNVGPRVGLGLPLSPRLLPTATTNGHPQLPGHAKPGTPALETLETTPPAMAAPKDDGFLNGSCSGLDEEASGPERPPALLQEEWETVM
Experiment: In vitro cAMP signal activity in HKRK-B7 cells (LLC-PK1 cells overexpressing the human PTH1 receptor)
Type: cell-based
Conditions: HKRK-B7 cells; compound at 1×10^−3 M; […]; 0.1 µM

SMILES | cAMP production activity (%)
CC(=O)N(c1ccc(/C=C/S(=O)(=O)N2CCC3(CC2)N=C(c2cccc(OC(F)(F)F)c2)NC3=O)c(C)c1)C1CCN(C(=O)OC(C)(C)C)CC1 [Compound 604, 4-[acetyl-(3-methyl-4-{(E)-2-[4-oxo-2-(3-trifluoromethoxy-phenyl)-1,3,8-triaza-spiro[4.5]dec-1-ene-8-sulfonyl]-vinyl}-phenyl)-amino]-piperidine-1-carboxylic acid tert-butyl ester] | 21%

Same assay, conditions: HKRK-B7 cells; compound at 1×10^−3 M; cAMP produced as percentage of that produced by hPTH(1-34) at 100 nM

SMILES | cAMP production activity (%)
Cc1cc(C(=O)N2CCCC2)ccc1/C=C/S(=O)(=O)N1CCC2(CC1)N=C(c1cccc(C(F)(F)F)c1)NC2=O [Compound 212, 8-{(E)-2-[2-methyl-4-(pyrrolidine-1-carbonyl)-phenyl]-ethenesulfonyl}-2-(3-trifluoromethyl-phenyl)-1,3,8-triaza-spiro[4.5]dec-1-en-4-one] | 59%
Cc1ccc(NCCO)cc1/C=C/S(=O)(=O)N1CCC2(CC1)N=C(C1CCCCC1)NC2=O [Compound 199, 2-cyclohexyl-8-{(E)-2-[5-(2-hydroxy-ethylamino)-2-methyl-phenyl]-ethenesulfonyl}-1,3,8-triaza-spiro[4.5]dec-1-en-4-one] | 46%
Cc1cc(C(=O)N2CCC(O)(CF)CC2)cc(C)c1/C=C/S(=O)(=O)N1CCC2(CC1)N=C(c1ccc(C(F)F)c(F)c1)NC2=O [Compound 1255, 2-(4-difluoromethyl-3-fluoro-phenyl)-8-{(E)-2-[4-(4-fluoromethyl-4-hydroxy-piperidine-1-carbonyl)-2,6-dimethyl-phenyl]-ethenesulfonyl}-1,3,8-triaza-spiro[4.5]dec-1-en-4-one] | 66%
Cc1cc(N2C(=O)CNC2=O)ccc1CCS(=O)(=O)N1CCC2(CC1)N=C(C1CCC(C)(C)CC1)NC2=O [Compound 951, 3-(4-{2-[2-(4,4-dimethyl-cyclohexyl)-4-oxo-1,3,8-triaza-spiro[4.5]dec-1-ene-8-sulfonyl]-ethyl}-3-methyl-phenyl)-imidazolidine-2,4-dione] | 93%
CCCCCCCCCC1=NC2(CCN(S(=O)(=O)CCc3c(C)cc(C(=O)N4CCC(O)CC4)cc3C)CC2)C(=O)N1 [Compound 984, 8-{2-[4-(4-hydroxy-piperidine-1-carbonyl)-2,6-dimethyl-phenyl]-ethanesulfonyl}-2-nonyl-1,3,8-triaza-spiro[4.5]dec-1-en-4-one] | 133%
Cc1cc(N(C)C(N)=O)cc(C)c1CC1(S(=O)(=O)N2CCC3(CC2)N=C(c2cccc(OC(F)(F)F)c2)NC3=O)CC1 [Compound 1084, 1-(3,5-Dimethyl-4-{1-[4-oxo-2-(3-trifluoromethoxy-phenyl)-1,3,8-triaza-spiro[4.5]dec-1-ene-8-sulfonyl]-cyclopropylmethyl}-phenyl)-1-methyl-urea] | 13%
O=C1Cc2c(/C=C/S(=O)(=O)N3CCC4(CC3)N=C(C3CCCCC3)NC4=O)cccc2N1 [Compound 634, 2-cyclohexyl-8-[(E)-2-(2-oxo-2,3-dihydro-1H-indol-4-yl)-ethenesulfonyl]-1,3,8-triaza-spiro[4.5]dec-1-en-4-one] | 29%
Cc1cc(N(C2CCC(O)CC2)S(C)(=O)=O)cc(C)c1/C=C/S(=O)(=O)N1CCC2(CC1)N=C(c1cccc(OC(F)(F)F)c1)NC2=O (stereo not drawn) [Compound 715, N-(3,5-dimethyl-4-{(E)-2-[4-oxo-2-(3-trifluoromethoxy-phenyl)-1,3,8-triaza-spiro[4.5]dec-1-ene-8-sulfonyl]-vinyl}-phenyl)-N-(4-hydroxy-cyclohexyl)-methane sulfonamide] | 20%
Cc1cc(C(=O)N2CCC(O)(CF)CC2)cc(C)c1/C=C/S(=O)(=O)N1CCC2(CC1)N=C(c1ccc3c(c1)OC(F)(F)O3)NC2=O [Compound 1280, 2-(2,2-difluoro-benzo[1,3]dioxol-5-yl)-8-{(E)-2-[4-(4-fluoromethyl-4-hydroxy-piperidine-1-carbonyl)-2,6-dimethyl-phenyl]-ethenesulfonyl}-1,3,8-triaza-spiro[4.5]dec-1-en-4-one] | 74%
Cc1ccc(C(=O)N(C)C)cc1-c1ccc(S(=O)(=O)N2CCC3(CC2)N=C(c2ccc(F)c(C(F)(F)F)c2)NC3=O)s1 [Compound 334, 3-{5-[2-(4-fluoro-3-trifluoromethyl-phenyl)-4-oxo-1,3,8-triaza-spiro[4.5]dec-1-ene-8-sulfonyl]-thiophen-2-yl}-4,N,N-trimethyl-benzamide] | 34%
Nc1ccc(CCS(=O)(=O)N2CCC3(CC2)N=C(C2CCCCC2)NC3=O)c(C(F)(F)F)c1 [Compound 314, 8-[2-(4-amino-2-trifluoromethyl-phenyl)-ethanesulfonyl]-2-cyclohexyl-1,3,8-triaza-spiro[4.5]dec-1-en-4-one] | 68%
CN(C)C(=O)Nc1ccc(/C=C/S(=O)(=O)N2CCC3(CC2)N=C(C2CCCCC2)NC3=O)c(C(F)(F)F)c1 [Compound 194, 3-{4-[(E)-2-(2-cyclohexyl-4-oxo-1,3,8-triaza-spiro[4.5]dec-1-ene-8-sulfonyl)-vinyl]-3-trifluoromethyl-phenyl}-1,1-dimethyl-urea] | 56%
Cc1cc(N(C)C(N)=O)cc(C)c1CC(F)(F)S(=O)(=O)N1CCC2(CC1)N=C(c1cccc(OC(F)(F)F)c1)NC2=O [Compound 1085, 1-(4-{2,2-Difluoro-2-[4-oxo-2-(3-trifluoromethoxy-phenyl)-1,3,8-triaza-spiro[4.5]dec-1-ene-8-sulfonyl]-ethyl}-3,5-dimethyl-phenyl)-1-methyl-urea] | 100%
O=C1NC(c2cccc(OC(F)(F)F)c2)=NC12CCN(S(=O)(=O)/C=C/c1cc(Cl)c(OCCC(O)CO)cc1Cl)CC2 (stereo not drawn) [Compound 234, 8-{(E)-2-[2,5-dichloro-4-(3,4-dihydroxy-butoxy)-phenyl]-ethenesulfonyl}-2-(3-trifluoromethoxy-phenyl)-1,3,8-triaza-spiro[4.5]dec-1-en-4-one] | 78%
Cc1cc(C(=O)N2CCC(C)(O)CC2)cc(C)c1/C=C/[S@TB4](=O)(=O)N1CCC2(CC1)N=C(c1ccc(C(F)(F)F)c(C(F)(F)F)c1)NC2=O [Compound 1095, 2-(3,4-bis-trifluoromethyl-phenyl)-8-{(E)-2-[4-(4-hydroxy-4-methyl-piperidine-1-carbonyl)-2,6-dimethyl-phenyl]-ethenesulfonyl}-1,3,8-triaza-spiro[4.5]dec-1-en-4-one] | 105%
CS(=O)(=O)c1cccc(C2=NC3(CCN(S(=O)(=O)c4cccc(Cl)c4)CC3)C(=O)N2)c1 [Compound 32, 8-(3-chloro-benzenesulfonyl)-2-(3-methanesulfonyl-phenyl)-1,3,8-triaza-spiro[4.5]dec-1-en-4-one] | 26%
Cc1cc(N(CCN(C)C)S(C)(=O)=O)cc(C)c1/C=C/S(=O)(=O)N1CCC2(CC1)N=C(c1cccc(OC(F)(F)F)c1)NC2=O [Compound 609, N-(2-dimethylamino-ethyl)-N-(3,5-dimethyl-4-{(E)-2-[4-oxo-2-(3-trifluoromethoxy-phenyl)-1,3,8-triaza-spiro[4.5]dec-1-ene-8-sulfonyl]-vinyl}-phenyl)-methane sulfonamide] | 46%
